Consider 11 molecules from ChEMBL document CHEMBL1641531, “Receptor activity and conformational analysis of 5'-halogenated resiniferatoxin analogs as TRPV1 ligands” (Bioorg Med Chem Lett, 2011).

Assay [1] deals with Transient receptor potential cation channel subfamily V member 1 (Rattus norvegicus) (UniProt O35433). The assay can be described thus: (§1) Antagonist activity at rat TRPV1 expressed in CHO cells assessed as response to capsaicin-stimulated 45Ca2+ uptake. The assay is classed as functional, cell-based. Also noted: scale not given: the % may be the effect or the level left.
Transient receptor potential cation channel subfamily V member 1 (Rattus norvegicus), sequence (O35433 whole entry): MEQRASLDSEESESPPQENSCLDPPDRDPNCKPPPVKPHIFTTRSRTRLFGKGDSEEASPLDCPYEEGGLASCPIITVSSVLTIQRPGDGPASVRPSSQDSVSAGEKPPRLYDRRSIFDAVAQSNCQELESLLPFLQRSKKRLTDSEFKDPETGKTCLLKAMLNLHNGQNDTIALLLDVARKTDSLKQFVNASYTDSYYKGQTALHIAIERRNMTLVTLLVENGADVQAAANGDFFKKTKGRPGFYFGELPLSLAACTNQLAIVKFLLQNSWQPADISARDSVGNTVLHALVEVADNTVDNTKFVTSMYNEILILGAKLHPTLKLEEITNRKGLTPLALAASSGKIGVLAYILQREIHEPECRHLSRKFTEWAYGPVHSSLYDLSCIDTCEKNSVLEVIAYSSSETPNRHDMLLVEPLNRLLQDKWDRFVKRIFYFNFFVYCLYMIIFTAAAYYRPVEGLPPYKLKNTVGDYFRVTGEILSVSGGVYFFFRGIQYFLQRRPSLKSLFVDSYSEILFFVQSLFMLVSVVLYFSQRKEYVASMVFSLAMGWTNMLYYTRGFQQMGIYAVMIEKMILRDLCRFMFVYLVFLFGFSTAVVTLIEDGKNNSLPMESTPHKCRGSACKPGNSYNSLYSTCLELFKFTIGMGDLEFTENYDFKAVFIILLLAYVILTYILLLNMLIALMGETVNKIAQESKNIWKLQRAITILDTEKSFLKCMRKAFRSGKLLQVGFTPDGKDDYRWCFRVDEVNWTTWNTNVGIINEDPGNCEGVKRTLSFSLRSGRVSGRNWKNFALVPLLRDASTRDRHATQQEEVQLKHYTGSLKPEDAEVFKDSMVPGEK
The target is the same in assay [2]. The assay can be described thus: Agonist activity at rat TRPV1 expressed in CHO cells assessed as 45Ca2+ uptake relative to capsaicin. The assay is classed as functional, cell-based.
For assay [3], the target named is T1, Transient receptor potential cation channel subfamily V member 1 (Rattus norvegicus, UniProt O35433). Nature of the assay: Displacement of [3H]RTX from rat […] expressed in CHO cells by competitive binding assay. The assay is classed as cell-based. (In general: In a radioligand displacement assay an active substance lowers the binding of a labelled ligand.)
T1 sequence (O35433 whole entry): as above

The target in assay [4] is T1, Transient receptor potential cation channel subfamily V member 1. The description is as §1. It is filed as functional, cell-based.
Assay [5] has the same target. Nature of the assay: Agonist activity at rat TRPV1 expressed in CHO cells assessed as 45Ca2+ uptake. It is filed as functional, cell-based.

The term Ki denotes the dissociation constant of the complex between target and ligand, obtained from inhibition or displacement. Take `C=C(C)[C@@]12C[C@@H](C)C34OC(Cc5ccccc5)(OC1[C@@H]3C=C(COC(=O)Cc1cc(Br)c(OC(C)=O)c(OC)c1)C[C@]1(O)C(=O)C(C)=C[C@@H]41)O2` (stereo partly specified): the Activity was found to be 30% in assay [1] and 37% in assay [2]. This molecule gave a Ki in assay [3] of 0.3 nM.

With `C=C(C)[C@@]12C[C@@H](C)C34OC(Cc5ccccc5)(OC1[C@@H]3C=C(COC(=O)Cc1cc(Br)c(O)c(OC)c1)C[C@]1(O)C(=O)C(C)=C[C@@H]41)O2` (stereo partly specified), the inhibitory constant (Ki) was 7.2 nM in assay [4] (read-out: Ki) and 0.17 nM in assay [3]. Further, in assay [2], the Activity stood at 19%.

The term EC50 denotes the midpoint of the concentration-response curve. As for `C=C(C)[C@@]12C[C@@H](C)C34OC(Cc5ccccc5)(OC1[C@@H]3C=C(COC(=O)Cc1ccc(N)c(OC)c1)C[C@]1(O)C(=O)C(C)=C[C@@H]41)O2` (stereo partly specified), in assay [5] (read-out: EC50), the EC50 came out at 0.46 nM. Further, the Ki result in assay [4] (cho) is “Not Active”; in assay [3], 0.13 nM.

Turning to `C=C(C)[C@]12C[C@@H](C)[C@@]34O[C@](Cc5ccccc5)(O[C@@H]1[C@@H]3C=C(COC(=O)Cc1ccc(O)c(OC)c1)C[C@]1(O)C(=O)C(C)=C[C@@H]41)O2` [RESINIFERATOXIN], the inhibitory constant (Ki) entry in assay [4] (cho) was “Not Active”.

As to `C=C(C)[C@@]12C[C@@H](C)C34OC(Cc5ccccc5)(OC1[C@@H]3C=C(COC(=O)Cc1cc(F)c(O)c(OC)c1)C[C@]1(O)C(=O)C(C)=C[C@@H]41)O2` (stereo partly specified), the EC50 in assay [5] (read-out: EC50) was 1.88 nM. Moreover, the inhibitory constant (Ki) result is “Not Active” in assay [4] (cho) and 0.26 nM in assay [3].

As to `C=C(C)[C@@]12C[C@@H](C)C34OC(Cc5ccccc5)(OC1[C@@H]3C=C(COC(=O)Cc1cc(Br)c(N)c(OC)c1)C[C@]1(O)C(=O)C(C)=C[C@@H]41)O2` (stereo partly specified), the EC50 result in assay [5] (cho) was “Not Active”. Further, the inhibitory constant (Ki) stood at 2.81 nM in assay [4] (read-out: Ki) and 1.99 nM in assay [3].

For `C=C(C)[C@@]12C[C@@H](C)C34OC(Cc5ccccc5)(OC1[C@@H]3C=C(COC(=O)Cc1cc(Cl)c(O)c(OC)c1)C[C@]1(O)C(=O)C(C)=C[C@@H]41)O2` (stereo partly specified), in assay [5] (read-out: EC50), the EC50 is 5.7 nM. For the same molecule, the values for the Ki entry in assay [4] (cho) and in assay [3] were “Not Active” and 1.03 nM, respectively.

For `C=C(C)[C@@]12C[C@@H](C)C34OC(Cc5ccccc5)(OC1[C@@H]3C=C(COC(=O)Cc1cc(Cl)c(N)c(OC)c1)C[C@]1(O)C(=O)C(C)=C[C@@H]41)O2` (stereo partly specified), the Activity was 56% in assay [1] and 34% in assay [2]. Moreover, in assay [3], the inhibition constant Ki came out at 0.85 nM.

As to `C=C(C)[C@@]12C[C@@H](C)C34OC(Cc5ccccc5)(OC1[C@@H]3C=C(COC(=O)Cc1cc(Br)cc(Br)c1)C[C@]1(O)C(=O)C(C)=C[C@@H]41)O2` (stereo partly specified), in assay [5] (read-out: EC50), the EC50 turned out to be 1070 nM. Besides, the values for the Ki result in assay [4] (cho) and in assay [3] were “Not Active” and 110 nM, respectively.

As to `C=C(C)[C@@]12C[C@@H](C)C34OC(Cc5ccccc5)(OC1[C@@H]3C=C(COC(=O)Cc1cc(I)c(O)c(OC)c1)C[C@]1(O)C(=O)C(C)=C[C@@H]41)O2` (stereo partly specified), the concentration giving a half-maximal response (EC50) result in assay [5] (cho) was “Not Active”. The values for the Ki in assay [4] (read-out: Ki) and in assay [3] were 12.2 nM and 0.61 nM, respectively.

For `C=C(C)[C@@]12C[C@@H](C)C34OC(Cc5ccccc5)(OC1[C@@H]3C=C(COC(=O)Cc1cc(F)c(N)c(OC)c1)C[C@]1(O)C(=O)C(C)=C[C@@H]41)O2` (stereo partly specified), the EC50 in assay [5] (read-out: EC50) was found to be 1.14 nM. The inhibitory constant (Ki) entry in assay [4] (cho) is “Not Active”; in assay [3], 0.7 nM.
